According to patent US8541428B2, “Heterocyclic derivatives, pharmaceutical compositions and methods of use thereof” (Technion Research and Development Foundation Ltd., priority 2006, dated 2013):
One block for each compound: values may come before it.

Key:
[1] = molecular target: peripheral-type benzodiazepine receptor (PBR) (Homo sapiens, UniProt P30536); test: PBR binding assay, [3H]PK 11195 radio-assay (competition with radioactive standard ligand); details: for binding to PBR (in words): [3H]PK 11195 radio-assay
peripheral-type benzodiazepine receptor (PBR), sequence (P30536 whole entry, species assumed): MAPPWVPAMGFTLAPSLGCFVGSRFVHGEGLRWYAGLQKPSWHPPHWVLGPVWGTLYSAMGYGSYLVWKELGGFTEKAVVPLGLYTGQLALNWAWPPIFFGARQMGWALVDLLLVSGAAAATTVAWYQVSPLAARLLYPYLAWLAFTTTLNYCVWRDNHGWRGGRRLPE
Experimental: Briefly, the assay utilizes radioactive standard ligand [^3H] PK 11195 (1-(2-chlorophenyl)-N-methyl-N-(1-methyl-propyl)-3-isoquinolinecarboxamide), and measures the ability of the compounds of the invention to compete with standard ligand in binding to PBR. Total radioactive binding was determined by measuring the radioactivity of the radioactive ligand-receptor complex, obtained in the reaction of radioactive standard with the PBR. Radioactive standard and the examined ligand were added to the PBR and after some incubation time the radioactivity of the resulting ligand-receptor complexes was measured with the help of […]. This radioactivity indicates the binding of the radioactive standard to PBR. […] For an easier interpretation of our results, the binding was expressed in percentage of radioactive ligand binding. The lower the number, the better the binding of the examined ligand to PBR. Western blot analysis can be used to see which components of the PBR-complex may be important for the efficacy of the new PBR ligands, according to methods described previously [Levin E et al. 2005; Kuznetsov V et al. 2005; Weisinger G et al. Biochemistiy 2004].

[2] = test system: C6 glioma cell line; test: Apoptotic levels in C6 glioma cell line (control and IBP knockdown); assay type: cell-based, rat; details: for increase of apoptotic levels: control cells; for apoptotic effects in IBP knockdown cell line: IBP knockdown cells, FGIN-1-27 10^-5M, ErPC 10^-4M
Source text: Cell death, including apoptosis. The Cell Death Detection ELISA^PLUS kit of Roche Molecular Biochemicals (Mannheim, Germany) was used to determine the effects on apoptosis by the new PBR ligands, in particular the one of the present description, according to methods described previously [Veenman L et al. 2005; Levin E et al. 2005]. Also, the Trypan blue method was applied in order to determine the cell viability after application of the new PBR ligands, according to methods described previously [Veenman L et al. 2005; Levin E et al. 2005]. Cell death including apoptosis of neural cells is induced by glutamate and Abeta, according to methods described previously [Michal Gaitner, M. Sc. thesis, 2004].

[3] = test system: C6 glioma cell line; test: Mitochondrial membrane potential decrease in C6 glioma cell line (control and IBP knockdown); assay type: cell-based, rat; details: 10^-4M
Experimental: Mitochondrial membrane potential and mitochondrial volume measurement. To see whether the new PBR ligand is able to prevent opening of the mitochondrial permeability transition pore to prevent apoptosis changes in the mitochondrial volume and potential are measured, as described previously [Maaser K, Br J Cancer 2001;85:1771-1780].

[4] = modulation of PBR composition, seizures; cited from earlier work
[5] = molecular target: PBR-complex (Homo sapiens, UniProt P30536); details: displacement of [3H]Ro5 4864; cited from earlier work
PBR-complex, sequence (P30536 whole entry, one chain of several): as the sequence (P30536 whole entry, species assumed) above

Compound: CCCCCCCC/C=C\CCCCCCCCCCCCOP(=O)([O-])OCC[N+](C)(C)C [ErPC]
increase of apoptotic levels ([2]; 10^-4M): 7-8 fold | apoptotic effects in IBP knockdown cell line [2]: completely abolished | effects on mitochondrial potential in IBP knockdown cell line ([3]; IBP knockdown cell line (as 3.7)): completely abolished | enhancement of mitochondrial membrane potential decrease ([3]; control cells vs vehicle treated control cells): 6 fold

Compound: CCC(C)N(C)C(=O)c1cc2ccccc2c(-c2ccccc2Cl)n1 (centres unmarked) [PK 11195, 1-(2-chlorophenyl)-N-methyl-N-(1-methyl-propyl)-3-isoquinolinecarboxamide]
effect on consequences of kainic acid injections [4]: prevented the effects of kainic acid injections

Compound: CN(C)C(=O)Oc1nc(-c2ccccc2)nc2ccccc12 [Compound 9a, Dimethyl-carbamic acid 2-phenyl-quinazolin-4-yl ester]
binding to PBR (in words) [1]: good binding properties

Compound: CCN(CC)C(=O)C(C)(C)c1nc2ccccc2nc1-c1ccccc1 [Compound 5, N,N-Diethyl-2-(3-phenyl-quinoxalin-2-yl)-isobutyramide]
binding to PBR (in words) [1]: best binding

Compound: CCCCCCN(CCCCCC)C(=O)Cc1c(-c2ccc(F)cc2)[nH]c2ccccc12 [FGIN-1-27]
increase of apoptotic levels ([2]; 10^-5M): 2 fold | apoptotic effects in IBP knockdown cell line [2]: completely abolished | Ki [5]: 4.4 ± 0.1 nM

Results, then the compound that gave them:

binding to PBR (in words) [1]: good binding properties
Compound: CC(C)N(C(=O)n1c(-c2ccccc2)nc2ccccc2c1=O)C(C)C [Compound 10b, 4-Oxo-2-phenyl-4H-quinazoline-3-carboxylic acid diisopropylamide]

radioactive standard remained bound to PBR (percentage of radioactive ligand binding) ([1]; [3H]PK 11195, the lower the number, the better the binding): 14% | binding to PBR (in words) [1]: good binding properties
Compound: CCN(CC)C(=O)Cc1nc(-c2ccccc2)nc2ccccc12 [Compound 12b, N,N-Diethyl-2-(2-phenyl-quinazolin-4-yl)-acetamide]

binding to PBR (in words) [1]: good binding properties
Compound: CC(C)N(C(=O)Cc1nc(-c2ccccc2)nc2ccccc12)C(C)C [Compound 12c, N,N-Diisopropyl-2-(2-phenyl-quinazolin-4-yl)-acetamide]
